From ChEMBL document CHEMBL1201862, “PubChem BioAssay data set” (2004)
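48-hour exposure; five concentrations; linearly interpolated endpoints. GI50 is the concentration that inhibits growth by half.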 The source made the active and inactive calls. No stated cut-off is given here; in the data, active = GI50 up to about 1.1 µM and inactive = higher.

Columns and labels:
Assay in all cases: growth of human tumour cells (NCI), 48 h
NCI-H522 = test system: NCI-H522
Malme-3M = test system: Malme-3M
SNB-19 = test system: SNB-19
SK-OV-3 = test system: SK-OV-3
786-0 = test system: 786-0
SNB-75 = test system: SNB-75
UO-31 = test system: UO-31
NCI-H460 = test system: NCI-H460
HCC 2998 = test system: HCC 2998
NCI-H23 = test system: NCI-H23
MCF7 = test system: MCF7
MOLT-4 = test system: MOLT-4
PC-3 = test system: PC-3
SF-295 = test system: SF-295
ACHN = test system: ACHN
UACC-62 = test system: UACC-62
HL-60 = test system: HL-60
SN12C = test system: SN12C
T47D = test system: T47D
LOX IMVI = test system: LOX IMVI

| Compound | GI50 (NCI-H522) | GI50 (Malme-3M) | GI50 (SNB-19) | GI50 (SK-OV-3) | GI50 (786-0) | GI50 (SNB-75) | GI50 (UO-31) | GI50 (NCI-H460) | GI50 (HCC 2998) | GI50 (NCI-H23) | GI50 (MCF7) | GI50 (MOLT-4) | GI50 (PC-3) | GI50 (SF-295) | GI50 (ACHN) | GI50 (UACC-62) | GI50 (HL-60) | GI50 (SN12C) | GI50 (T47D) | GI50 (LOX IMVI) |
| --- | --- | --- | --- | --- | --- | --- | --- | --- | --- | --- | --- | --- | --- | --- | --- | --- | --- | --- | --- | --- |
| COc1ccc(CN2C[C@H]3[C@@H](CC(=O)O[C@H]3C)CC2=O)cc1 | > 100 µM (inactive) | > 100 µM (inactive) | > 100 µM (inactive) | > 100 µM (inactive) | > 100 µM (inactive) | > 100 µM (inactive) | > 100 µM (inactive) | > 100 µM (inactive) | > 100 µM (inactive) | > 100 µM (inactive) | > 100 µM (inactive) | > 100 µM (inactive) | > 100 µM (inactive) | > 100 µM (inactive) | > 100 µM (inactive) | > 100 µM (inactive) |  |  |  |  |
| O=S(=O)(/N=C1/S/C(=N\c2ccccc2)N(c2ccccc2)/C1=N/S(=O)(=O)c1ccccc1)c1ccccc1 |  | 22.5 µM (inactive) | 24 µM (inactive) |  | 19 µM (inactive) | 20.7 µM (inactive) | 15.8 µM (inactive) | 21.3 µM (inactive) | 20.9 µM (inactive) | 16.4 µM (inactive) | 20.5 µM (inactive) | 21.4 µM (inactive) | > 10 µM (inactive) |  | 19.5 µM (inactive) | 17.2 µM (inactive) | 22.6 µM (inactive) | 12.4 µM (inactive) |  |  |
| COc1cc2c(cc1O)-c1c(cnn1-c1ccc([N+](=O)[O-])cc1)CCC2 | 11.6 µM (inactive) | 5.82 µM (inactive) | 27.7 µM (inactive) | 44.3 µM (inactive) | 12.9 µM (inactive) | 22.9 µM (inactive) |  | 10.3 µM (inactive) |  | 13.8 µM (inactive) | 26.8 µM (inactive) | 1.02 µM (active) | 10.8 µM (inactive) | 10.9 µM (inactive) | 1.82 µM (inactive) | 1.79 µM (inactive) |  | 2.86 µM (inactive) | 19.8 µM (inactive) | 12.6 µM (inactive) |
| Cc1cc(-c2no[n+]([O-])c2-c2cc(C)sc2S(C)(=O)=O)c(S(C)(=O)=O)s1 | 87.5 µM (inactive) |  | 20.2 µM (inactive) | > 100 µM (inactive) | > 100 µM (inactive) | > 100 µM (inactive) | > 100 µM (inactive) | > 100 µM (inactive) | > 100 µM (inactive) | > 100 µM (inactive) |  | > 100 µM (inactive) | > 100 µM (inactive) | > 100 µM (inactive) | > 100 µM (inactive) |  |  | > 100 µM (inactive) | 89.5 µM (inactive) | > 100 µM (inactive) |
| O=C1[C@@H]2C(c3ccccc3[N+](=O)[O-])=[N+](c3ccccc3)O[C@@H]2C(=O)N1c1ccc(Cc2ccc(N3C(=O)[C@H]4C(c5ccccc5[N+](=O)[O-])=[N+](c5ccccc5)O[C@H]4C3=O)cc2)cc1 | > 100 µM (inactive) | 27.7 µM (inactive) | > 100 µM (inactive) | > 100 µM (inactive) | > 100 µM (inactive) | > 100 µM (inactive) | > 100 µM (inactive) | > 100 µM (inactive) | > 100 µM (inactive) | > 100 µM (inactive) |  | > 100 µM (inactive) |  | > 100 µM (inactive) | > 100 µM (inactive) | 67.6 µM (inactive) | > 100 µM (inactive) | > 100 µM (inactive) |  | > 100 µM (inactive) |
| Cc1ccc(S(=O)(=O)Nn2c(-c3ccccc3)c(C#N)c(-c3ccc([N+](=O)[O-])cc3)c(C#N)c2=O)cc1 | 13.3 µM (inactive) | > 100 µM (inactive) | 40.8 µM (inactive) | > 100 µM (inactive) | > 100 µM (inactive) | 96.6 µM (inactive) |  | > 100 µM (inactive) | > 100 µM (inactive) |  | 61.2 µM (inactive) | 45.6 µM (inactive) | > 100 µM (inactive) | > 100 µM (inactive) | > 100 µM (inactive) | > 100 µM (inactive) | 39.4 µM (inactive) | > 100 µM (inactive) |  | > 100 µM (inactive) |
| NNC(=O)CC(=O)Nc1ccc(S(=O)(=O)c2ccc(NC(=O)CC(=O)NN)cc2)cc1 | > 100 µM (inactive) |  | > 100 µM (inactive) | > 100 µM (inactive) | > 100 µM (inactive) | > 100 µM (inactive) | > 100 µM (inactive) | > 100 µM (inactive) | > 100 µM (inactive) | > 100 µM (inactive) |  | > 100 µM (inactive) | > 100 µM (inactive) | > 100 µM (inactive) | > 100 µM (inactive) | > 100 µM (inactive) | > 100 µM (inactive) | > 100 µM (inactive) | > 100 µM (inactive) |  |
| [O-]c1c2c(nn1-c1ccc(Cl)cc1)c1ccccc1c[n+]2Cc1ccccc1 | 58.9 µM (inactive) | 45.4 µM (inactive) | > 100 µM (inactive) | 40.2 µM (inactive) | 33.3 µM (inactive) | 32.2 µM (inactive) | > 100 µM (inactive) | > 100 µM (inactive) | > 100 µM (inactive) | > 100 µM (inactive) |  | > 100 µM (inactive) |  | 78.9 µM (inactive) | 80.5 µM (inactive) | 44.6 µM (inactive) | > 100 µM (inactive) | > 100 µM (inactive) |  | > 100 µM (inactive) |
